For 28 compounds, IC50 results are on record in US8772343B2, “Chemical compounds” (Pfizer Limited, priority 2010, dated 2014).

The target of the assay is T1, Nav1.7 (or SCN9A) channel (Homo sapiens, UniProt Q15858).
T1 construct: expressed in transfected cells
T1 sequence (Q15858 whole entry): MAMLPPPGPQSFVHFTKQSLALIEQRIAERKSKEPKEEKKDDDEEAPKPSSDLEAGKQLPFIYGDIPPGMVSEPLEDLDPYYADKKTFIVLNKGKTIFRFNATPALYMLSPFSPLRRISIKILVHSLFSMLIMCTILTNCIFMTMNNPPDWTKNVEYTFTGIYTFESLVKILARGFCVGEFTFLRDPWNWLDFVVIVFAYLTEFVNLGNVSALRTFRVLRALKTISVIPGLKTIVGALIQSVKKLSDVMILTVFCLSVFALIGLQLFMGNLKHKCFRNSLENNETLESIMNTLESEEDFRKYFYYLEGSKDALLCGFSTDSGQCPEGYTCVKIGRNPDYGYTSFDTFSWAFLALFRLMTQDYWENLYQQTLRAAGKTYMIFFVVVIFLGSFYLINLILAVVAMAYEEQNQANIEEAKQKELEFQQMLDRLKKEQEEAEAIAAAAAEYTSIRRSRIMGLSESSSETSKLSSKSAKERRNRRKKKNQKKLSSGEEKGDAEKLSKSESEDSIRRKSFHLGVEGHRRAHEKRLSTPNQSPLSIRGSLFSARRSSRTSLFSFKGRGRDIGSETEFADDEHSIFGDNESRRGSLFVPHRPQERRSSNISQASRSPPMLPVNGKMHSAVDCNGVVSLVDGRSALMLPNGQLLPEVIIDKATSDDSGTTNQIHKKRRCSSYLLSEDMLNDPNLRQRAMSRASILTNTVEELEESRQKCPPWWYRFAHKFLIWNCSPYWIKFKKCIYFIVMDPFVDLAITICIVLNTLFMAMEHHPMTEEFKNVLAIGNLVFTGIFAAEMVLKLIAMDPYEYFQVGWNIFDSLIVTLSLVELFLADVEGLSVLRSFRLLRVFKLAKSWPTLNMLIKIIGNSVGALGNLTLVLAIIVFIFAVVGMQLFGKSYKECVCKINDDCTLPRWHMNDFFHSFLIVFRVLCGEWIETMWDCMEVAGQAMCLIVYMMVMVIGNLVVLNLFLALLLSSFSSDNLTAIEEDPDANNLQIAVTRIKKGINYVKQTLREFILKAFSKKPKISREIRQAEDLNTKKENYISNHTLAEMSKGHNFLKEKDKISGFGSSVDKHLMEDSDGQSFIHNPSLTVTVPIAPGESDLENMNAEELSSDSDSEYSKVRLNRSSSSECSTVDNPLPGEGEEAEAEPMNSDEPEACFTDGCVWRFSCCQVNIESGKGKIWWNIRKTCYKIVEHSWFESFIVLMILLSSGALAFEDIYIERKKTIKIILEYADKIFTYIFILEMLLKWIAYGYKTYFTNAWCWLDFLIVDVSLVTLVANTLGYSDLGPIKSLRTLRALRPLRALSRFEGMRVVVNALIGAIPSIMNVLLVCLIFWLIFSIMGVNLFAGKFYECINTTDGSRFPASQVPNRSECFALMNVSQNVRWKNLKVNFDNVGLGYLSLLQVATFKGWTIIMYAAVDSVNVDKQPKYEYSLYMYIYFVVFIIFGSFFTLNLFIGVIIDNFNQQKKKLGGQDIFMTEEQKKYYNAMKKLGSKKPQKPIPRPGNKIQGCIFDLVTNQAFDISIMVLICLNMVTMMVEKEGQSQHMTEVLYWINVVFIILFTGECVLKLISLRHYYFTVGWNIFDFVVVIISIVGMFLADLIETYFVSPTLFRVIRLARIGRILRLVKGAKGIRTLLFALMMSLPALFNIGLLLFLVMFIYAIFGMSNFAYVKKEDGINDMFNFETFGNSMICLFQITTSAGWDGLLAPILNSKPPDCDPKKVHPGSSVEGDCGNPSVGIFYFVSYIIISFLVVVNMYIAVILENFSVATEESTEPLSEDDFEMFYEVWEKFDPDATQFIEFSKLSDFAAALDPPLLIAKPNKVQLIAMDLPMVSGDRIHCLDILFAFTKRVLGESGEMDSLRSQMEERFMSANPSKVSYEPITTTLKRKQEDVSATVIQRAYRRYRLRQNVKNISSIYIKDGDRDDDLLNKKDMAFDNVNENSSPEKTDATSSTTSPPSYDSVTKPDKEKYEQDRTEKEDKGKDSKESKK
The experiment in a line: Nav1.7 PatchXpress automated whole-cell electrophysiology in HEK cells expressing hSCN9A. To be noted: estimated IC50 from single point data, PatchXpress assay, held at V1/2 of inactivation, read-out: Nav1.7 EIC50. The format is cell-based. The procedure: The ability of the compounds of formula (I) to block the Nav1.7 (or SCN9A) channel were measured using the assay described below.
Human Embryonic Kidney (HEK) cells were transfected with an hSCN9A construct using lipofectamine reagent (Invitrogen), using standard techniques. Cells stably expressing the hSCN9A constructs were identified by their resistance to G-418 (400 μg/ml). Clones were screened for expression using the whole-cell voltage-clamp technique.
HEK cells stably transfected with hSCN9A were maintained in DMEM medium supplemented with 10% heat-inactivated fetal bovine serum and 400 μg/ml G-418 in an incubator at 37° C. with a humidified atmosphere of 10% CO2. For HTS, cells were harvested from flasks by trypsinization and replated in an appropriate multi-well plate (typically 96 or 384 wells/plate) such that confluence would be achieved within 24 hours of plating. For electrophysiological studies, cells were removed from the culture flask by brief trypsinization and re-plated at low density onto glass cover slips. Cells were typically used for electrophysiological experiments within 24 to 72 hours after plating.
Cover slips containing HEK cells expressing hSCN9A were placed in a bath on the stage of an inverted microscope and perfused (approximately 1 ml/minutes) with extracellular solution of the following composition: 138 mM NaCl, 2 mM CaCl2, 5.4 mM KCl, 1 mM MgCl2, 10 mM glucose, and 10 mM HEPES, pH 7.4, with NaOH. […] The osmolarity of the extracellular and intracellular solutions was 300 mOsm/kg and 295 mOsm/kg, respectively. All recordings were made at room temperature (22-24° C.) using AXOPATCH 200B amplifiers and PCLAMP software (Axon Instruments, Burlingame, Calif.).
hSCN9A currents in HEK cells were measured using the whole-cell configuration of the patch-clamp technique (Hamill et al., 1981). Uncompensated series resistance was typically 2 to 5 mega ohms and >85% series resistance compensation was routinely achieved. As a result, voltage errors were negligible and no correction was applied. Current records were acquired at 20 to 50 KHz and filtered at 5 to 10 KHz.
HEK cells stably transfected with hSCN9A were viewed under Hoffman contrast optics and placed in front of an array of flow pipes emitting either control or compound-containing extracellular solutions. All compounds were dissolved in dimethyl sulfoxide to make 10 mM stock solutions, which were then diluted into extracellular solution to attain the final concentrations desired. […] The voltage-dependence of inactivation was determined by applying a series of depolarizing prepulses (8 sec long in 10 mV increments) from a negative holding potential. The voltage was then immediately stepped to 0 mV to assess the magnitude of the sodium current. Currents elicited at 0 mV were plotted as a function of prepulse potential to allow estimation of the voltage at which 50% of the channels were inactivated (midpoint of inactivation or V1/2). Compounds were tested for their ability to inhibit hSCN9A sodium channels by activating the channel with a 20 msec voltage step to 0 mV following an 8 second conditioning prepulse to the empirically determined V1/2. Compound effect (% inhibition) was determined by difference in current amplitude before and after application of test compounds. For ease of comparison, “estimated IC-50” (EIC50) values were calculated from single point electrophysiology data by the following equation, (tested concentration, uM)×(100-% inhibition/% inhibition). Inhibition values<20% and >80% were excluded from the calculation.
Electrophysiological assays were conducted with PatchXpress 7000 hardware and associated software (Molecular Devices Corp). All assay buffers and solutions were identical to those used in conventional whole-cell voltage clamp experiments described above. hSCN9A cells were grown as above to 50%-80% confluency and harvested by trypsinization. […]
Consider `COc1ncccc1-c1cc(C(=O)NS(C)(=O)=O)ccc1Oc1cccc(F)c1` [Example 59, 4-(3-fluorophenoxy)-3-(2-methoxypyridin-3-yl)-N-(methylsulfonyl)benzamide], for which the IC50 is 370 nM.
With `CCc1cc(Oc2ccc(C(=O)NS(C)(=O)=O)cc2-c2cccnc2OC)ccc1Cl` [Example 60, 4-(4-chloro-3-ethylphenoxy)-3-(2-methoxypyridin-3-yl)-N-(methylsulfonyl)benzamide] the figure was 18 nM; with `COc1ncccc1-c1cc(C(=O)NS(C)(=O)=O)ccc1Oc1cccc(C(F)(F)F)c1` [Example 61, 3-(2-methoxypyridin-3-yl)-N-(methylsulfonyl)-4-[3-(trifluoromethyl)phenoxy]benzamide], 66 nM; with `COCc1ccc(Oc2ccc(C(=O)NS(C)(=O)=O)cc2-c2cccnc2OC)cc1` [Example 62, 4-[4-(methoxymethyl)phenoxy]-3-(2-methoxypyridin-3-yl)-N-(methylsulfonyl)benzamide], 1200 nM.
As to `CCc1ccc(Oc2ccc(C(=O)NS(C)(=O)=O)cc2-c2cccnc2OC)cn1` [Example 63, 4-[(6-ethylpyridin-3-yl)oxy]-3-(2-methoxypyridin-3-yl)-N-(methylsulfonyl)benzamide], the IC50 is 3900 nM.
With `COc1ncccc1-c1cc(C(=O)NS(C)(=O)=O)ccc1Oc1ccc(Cl)cc1F` [Example 64, 4-(4-chloro-2-fluorophenoxy)-3-(2-methoxypyridin-3-yl)-N-(methylsulfonyl)benzamide] the figure was 540 nM; with `COc1ccc(Oc2ccc(C(=O)NS(C)(=O)=O)cc2-c2cccnc2OC)cc1` [Example 65, 4-(4-methoxyphenoxy)-3-(2-methoxypyridin-3-yl)-N-(methylsulfonyl)benzamide], 640 nM.
The value for `COc1ncccc1-c1cc(C(=O)NS(C)(=O)=O)ccc1Oc1ccc(Cl)c(F)c1` [Example 66, 4-(4-chloro-3-fluorophenoxy)-3-(2-methoxypyridin-3-yl)-N-(methylsulfonyl)benzamide] was 98 nM; that for `CCOc1ccccc1Oc1ccc(C(=O)NS(C)(=O)=O)cc1-c1cccnc1OC` [Example 67, 4-(2-ethoxyphenoxy)-3-(2-methoxypyridin-3-yl)-N-(methylsulfonyl)benzamide] was 2800 nM.
The value for `COc1ncccc1-c1cc(C(=O)NS(C)(=O)=O)ccc1Oc1cccc(OC(F)(F)F)c1` [Example 68, 3-(2-methoxypyridin-3-yl)-N-(methylsulfonyl)-4-[3-(trifluoromethoxy)phenoxy]benzamide] was 83 nM.
Consider `COc1ncccc1-c1cc(C(=O)NS(C)(=O)=O)ccc1Oc1cc(F)cc(F)c1` [Example 69, 4-(3,5-difluorophenoxy)-3-(2-methoxypyridin-3-yl)-N-(methylsulfonyl)benzamide], for which the IC50 is 440 nM.
As for `COc1ccc(Oc2ccc(C(=O)NS(C)(=O)=O)cc2-c2cccnc2OC)cn1` [Example 70, 3-(2-methoxypyridin-3-yl)-4-[(6-methoxypyridin-3-yl)oxy]-N-(methylsulfonyl)benzamide], the IC50 is 2200 nM.
With `COc1ncccc1-c1cc(C(=O)NS(C)(=O)=O)ccc1Oc1cccc(C#N)c1` [Example 71, 4-(3-cyanophenoxy)-3-(2-methoxypyridin-3-yl)-N-(methylsulfonyl)benzamide] the figure was 2500 nM.
With `COc1ncccc1-c1cc(C(=O)NS(C)(=O)=O)ccc1Oc1cc(F)cc(C(F)(F)F)c1` [Example 72, 4-[3-fluoro-5-(trifluoromethyl)phenoxy]-3-(2-methoxypyridin-3-yl)-N-(methylsulfonyl)benzamide] the figure was 100 nM; with `COc1ncccc1-c1cc(C(=O)NS(C)(=O)=O)ccc1Oc1ccc(C)cc1` [Example 73, 3-(2-methoxypyridin-3-yl)-4-(4-methylphenoxy)-N-(methylsulfonyl)benzamide], 170 nM; with `COc1ncccc1-c1cc(C(=O)NS(C)(=O)=O)ccc1Oc1cccc(F)c1F` [Example 74, 4-(2,3-difluorophenoxy)-3-(2-methoxypyridin-3-yl)-N-(methylsulfonyl)benzamide], 1900 nM.
With `COc1ccc(Oc2ccc(C(=O)NS(C)(=O)=O)cc2-c2cccnc2OC)cc1Cl` [Example 75, 4-(3-chloro-4-methoxyphenoxy)-3-(2-methoxypyridin-3-yl)-N-(methylsulfonyl)benzamide] the figure was 310 nM.
In the case of `COc1ncccc1-c1cc(C(=O)NS(C)(=O)=O)ccc1Oc1ccc(Cl)cn1` [Example 76, 4-[(5-chloropyridin-2-yl)oxy]-3-(2-methoxypyridin-3-yl)-N-(methylsulfonyl)benzamide], the IC50 is above 1000 nM.
The value for `CCc1ccc(Oc2ccc(C(=O)NS(C)(=O)=O)cc2-c2cccnc2OC)cc1` [Example 77, 4-(4-ethylphenoxy)-3-(2-methoxypyridin-3-yl)-N-(methylsulfonyl)benzamide] was below 1000 nM; that for `COc1ncccc1-c1cc(C(=O)NS(C)(=O)=O)ccc1Oc1ccc(F)c(C(F)(F)F)c1` [Example 78, 4-[4-fluoro-3-(trifluoromethyl)phenoxy]-3-(2-methoxypyridin-3-yl)-N-(methylsulfonyl)benzamide] was 150 nM.
The value for `COc1ccc(Oc2ccc(C(=O)NS(C)(=O)=O)cc2-c2cccnc2OC)c(F)c1` [Example 79, 4-(2-fluoro-4-methoxyphenoxy)-3-(2-methoxypyridin-3-yl)-N-(methylsulfonyl)benzamide] was 2400 nM; that for `CCc1ccccc1Oc1ccc(C(=O)NS(C)(=O)=O)cc1-c1cccnc1OC` [Example 80, 4-(2-ethylphenoxy)-3-(2-methoxypyridin-3-yl)-N-(methylsulfonyl)benzamide] was above 1000 nM.
On to `COc1ncccc1-c1cc(C(=O)NS(C)(=O)=O)ccc1Oc1cccc(C(F)(F)F)c1F` [Example 81, 4-[2-fluoro-3-(trifluoromethyl)phenoxy]-3-(2-methoxypyridin-3-yl)-N-(methylsulfonyl)benzamide], for which the IC50 is 1100 nM.
With `COc1ncccc1-c1cc(C(=O)NS(C)(=O)=O)ccc1Oc1ccccc1C(F)(F)F` [Example 82, 3-(2-methoxypyridin-3-yl)-N-(methylsulfonyl)-4-[2-(trifluoromethyl)phenoxy]benzamide] the figure was above 1000 nM; with `CCOc1ccc(Oc2ccc(C(=O)NS(C)(=O)=O)cc2-c2cccnc2OC)cc1` [Example 83, 4-(4-ethoxyphenoxy)-3-(2-methoxypyridin-3-yl)-N-(methylsulfonyl)benzamide], 490 nM; with `CCOc1cccc(Oc2ccc(C(=O)NS(C)(=O)=O)cc2-c2cccnc2OC)c1` [Example 84, 4-(3-ethoxyphenoxy)-3-(2-methoxypyridin-3-yl)-N-(methylsulfonyl)benzamide], 490 nM.
With `COc1cccc(Oc2ccc(C(=O)NS(C)(=O)=O)cc2-c2cccnc2OC)c1` [Example 85, 4-(3-methoxyphenoxy)-3-(2-methoxypyridin-3-yl)-N-(methylsulfonyl)benzamide] the figure was 640 nM.
The value for `COc1ncccc1-c1cc(C(=O)NS(C)(=O)=O)ccc1Oc1ccc(F)cc1F` [Example 86, 4-(2,4-difluorophenoxy)-3-(2-methoxypyridin-3-yl)-N-(methylsulfonyl)benzamide] was 1100 nM.
